# Laboratory results published in patent EP4671240A1, “SALT CONTAINING AROMATIC RING DERIVATIVE ANTAGONIST, PREPARATION METHOD THEREFOR, AND APPLICATION THEREOF” (Jiangsu Hansoh Pharmaceutical Group Co., Ltd., priority 2023, dated 2024).
# Experiments:
# CYP450 1A2 = target: T1, CYP450 1A2 (Homo sapiens, UniProt P05177); test: CYP enzyme single-point inhibition assay, 1A2; type: in vitro ADME; conditions: human liver microsomes, single-point method
# T1 construct: Human liver microsome incubation system was used; from tissue; host or cells: human liver microsomes
# T1 sequence (P05177 1-516): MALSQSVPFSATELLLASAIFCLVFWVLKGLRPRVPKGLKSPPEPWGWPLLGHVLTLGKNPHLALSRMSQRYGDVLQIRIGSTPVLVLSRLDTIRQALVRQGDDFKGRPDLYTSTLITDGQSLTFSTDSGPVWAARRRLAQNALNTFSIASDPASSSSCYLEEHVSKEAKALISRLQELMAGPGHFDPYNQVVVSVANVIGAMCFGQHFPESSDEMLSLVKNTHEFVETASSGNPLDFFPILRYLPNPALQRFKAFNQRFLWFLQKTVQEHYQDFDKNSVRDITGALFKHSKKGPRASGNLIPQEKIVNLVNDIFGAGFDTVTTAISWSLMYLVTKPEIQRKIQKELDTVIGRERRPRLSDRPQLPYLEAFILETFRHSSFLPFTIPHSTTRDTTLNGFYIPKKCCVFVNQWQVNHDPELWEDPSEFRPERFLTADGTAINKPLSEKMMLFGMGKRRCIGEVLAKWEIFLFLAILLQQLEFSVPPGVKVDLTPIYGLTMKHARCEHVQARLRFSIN
# Procedure: Human liver microsome incubation system was used, and the single-point method was used to quickly predict the inhibition on CYP450 enzyme subtypes (1A2, 2C19, 2D6, 3A4-M, and 3A4-T) by compounds.
# For 2.5 mM NADPH, 4.165 mg of NADPH (reduced nicotinamide adenine dinucleotide phosphate) was weighed and 100 mM phosphate buffer was added to a final volume of 2 mL. For 0.25 mg/mL microsomes, 50 µL of 20 mg/mL microsomes was mixed with […] of 100 mM phosphate buffer evenly.
# The test example compounds were weighed, diluted to 10 mM with DMSO, and then diluted to 100 µM with 100 mM phosphate buffer.
# • 1. Liver microsomes (40 µL), substrate (10 µL), and test compound (10 µL) were added to a 96-well plate, and the mixture was pre-incubated for 3 min. • 2. NADPH (40 µL) was added. • 3. At 20 min, acetonitrile stop solution containing internal standard (300 µL) was added. • 4. The mixture was centrifuged and the sample was loaded.
# [1] = Rat pharmacokinetic evaluation assay (oral); type: in vivo; conditions: male, SD rats, p.o. 5 mg/kg, plasma; for MRT inf: read-out: MRT 0-∞
# Procedure: 6. Experimental conclusion: It can be seen from the data in the table that the example compounds shown in the present invention show good antagonistic effects in the experiment of the effect on calcium current in cells stably expressing ETA receptors. 2. Rat pharmacokinetic evaluation assay 1. Study objective: SD rats were used as test animals to study the pharmacokinetic behaviour of the compounds of the present invention in rat (plasma) after oral administration at a dose of 5 mg/kg. 2. Experimental scheme: • 2.1 Experimental drugs: The example compounds of the present invention, made in house. • 2.2 Experimental animals: 3 SD rats/group, male, from Shanghai Jiesijie Experimental Animal Co., Ltd., animal production license number (SCXK (Shanghai) 2013-0006 N0.311620400001794). 2.3 Preparation formulation: 0.5% CMC-Na (1% Tween80) was dissolved by ultrasonication, and formulated into a clear solution or homogeneous suspension. 2.4 Administration: • p.o. respectively after the rats were fasted overnight; • the p.o. dose was 5 mg/kg and the administration volume was 10 mL/kg. 2.5 Sample collection: After oral administration of rats, 0.2 mL of blood was collected from the jugular vein at 0.25 h, 0.5 h, 1.0 h, 2.0 h, and 4.0 h, placed in an EDTA-2K test tube, and centrifuged at 6000 rpm for 6 min at 4°C to separate plasma which was stored at - 80°C; the animals were fed 4 h after administration. 2.6 Sample treatment: • 1) Acetonitrile (160 µL) was added to plasma sample (40 µL) for precipitation, and the mixture was centrifuged at 3500 × g for 5-20 min. • 2) The treated supernatant solution was taken and subjected to LC/MS/MS to analyse the concentrations of the test compound. LC/MS/MS analysis instrument: AB Sciex API 4000 Qtrap. 2.7 Liquid phase analysis: • Liquid phase conditions: Shimadzu LC-20AD pump • Chromatographic column: Agilent ZORBAX XDB-C18 (50×2.1 mm, 3.5 µm), mobile phase: liquid A: 0.1% formic acid in water, liquid B: acetonitrile • Flow rate: 0.4 mL/min • Elution time: 0-4.0 min, the eluent was as follows:
# The main pharmacokinetic parameters were calculated using WinNonlin 6.1. The results of pharmacokinetic experiments in rats are as shown in Table 13 below: Table 13: Pharmacokinetic parameters of the compounds of the present invention in rats after oral administration
Compound,IC50 (CYP450 1A2),AUC(0-inf) [1],Cmax [1],Tmax [1],MRT inf [1]
"CCCCC1=NC2(CCCC2)C(=O)N1Cc1ccc(-c2ccccc2S(=O)(=O)Nc2noc(C)c2Cl)c(COCC)c1 [Example 8, 2-[4-[(2-Butyl-4-oxo-1,3-diazaspiro[4.4]non-1-en-3-yl)methyl]-2-(ethoxymethyl)phenyl]-N-(4-chloro-5-methyl-isoxazol-3-yl)benzenesulfonamide]",> 100 µM,16000 ng·h/mL,2140 ng/mL,0.5 h,8.6 h
"[2H]C([2H])(c1ccc(-c2ccccc2S(=O)(=O)Nc2noc(C)c2Cl)c(COCC)c1)N1C(=O)C2(CCCC2)N=C1CCCC [Example 2, 4'-((2-Butyl-4-oxo-1,3-diazaspiro[4.4]non-1-en-3-yl)methyl-d2)-N-(4-chloro-5-methylisoxazol-3-yl)-2'-(ethoxymethyl)-[1,1'-biphenyl]-2-sulfonamide]",> 100 µM,10200 ng·h/mL,1690 ng/mL,0.5 h,8.4 h
